The assay addresses T1, human MCH-1R (Homo sapiens, UniProt Q99705).
T1 construct: expressed in transfected cells; host or cells: CHO-K1 (American Type Culture Collection)
As to the kind of experiment: MCH-1R binding inhibition ([125I]MCH binding to membranes of MCH-1R expression CHO-K1 cells). As to conditions: 50 pM [125I]MCH, membranes of CHO-K1 cells expressing human MCH-1R, 25° C., one hour, pH 7.4; read-out: IC50 (50% inhibition concentration for specific [125I]MCH binding). Here is the method:
A cDNA sequence encoding human MCH-1R [FEBS Letters, Vol. 398, 253 (1996); Biochimica et Biophisica Acta, Vol. 1401, 216 (1998)] was cloned to a plasmid vector pEF/myc/cyto (manufactured by Invitrogen). The obtained expression vector was transfected to a host cell CHO-K1 (American Type Culture Collection) using Lipofectamine Plus reagent (manufactured by Life Technology) to provide MCH-1R expression cells.
Membrane samples prepared from the MCH-1R expression cells were incubated with a test compound and 50 pM [^125I]MCH (manufactured by NEN) in an assay buffer (50 mM Tris buffer containing 10 mM magnesium chloride, 2 mM ethylenediamine tetraacetate, 0.01% bacitracin, and 0.2% bovine serum albumin; pH 7.4) at 25° C. for one hour, followed by filtration through a glass filter GF/C (manufactured by Wattman). The glass filter was washed with 50 mM Tris buffer (pH 7.4) containing 10 mM magnesium chloride, 2 mM ethylenediamine tetraacetate, and 0.04% Tween-20, and then the radioactivity on the glass filter was determined. Non-specific binding was measured in the presence of 1 μM human MCH, and, with respect to each test compound, 50% inhibition concentration (IC50 value) for specific [^125I]MCH binding was determined.

T1 sequence (Q99705 whole entry): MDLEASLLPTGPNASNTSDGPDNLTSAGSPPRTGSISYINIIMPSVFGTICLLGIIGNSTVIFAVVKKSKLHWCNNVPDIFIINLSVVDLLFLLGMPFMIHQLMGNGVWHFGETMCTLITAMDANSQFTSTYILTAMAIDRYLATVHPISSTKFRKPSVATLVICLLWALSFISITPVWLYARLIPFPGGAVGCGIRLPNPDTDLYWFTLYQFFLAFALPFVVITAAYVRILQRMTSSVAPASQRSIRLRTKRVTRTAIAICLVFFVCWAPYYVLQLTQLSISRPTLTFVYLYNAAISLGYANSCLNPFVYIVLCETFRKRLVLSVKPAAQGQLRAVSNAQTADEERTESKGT

Turning to `Cc1cc(-n2ccc(OCc3ccc(F)cc3)cc2=O)ccc1OCC(C)(C)O` [Example 2, 4-[(4-Fluorobenzyloxy)]-1-[4-(2-hydroxy-2-methylpropoxy)-3-methylphenyl]pyridin-2(1H)-one], the IC50 stood at 11 nM.

On to `Cc1cc(-n2ccc(OCc3ccc(F)cc3)cc2=O)ccc1OCC1(O)CC1` [Example 5, 4-[(4-Fluorobenzyl)oxy]-1-{4-[(1-hydroxycyclopropyl)methoxy]-3-methylphenyl}pyridin-2(1H)-one], for which the IC50 turned out to be 11 nM.

Take `CC(C)(CO)COc1ccc(-n2ccc(OCc3ccc(F)cc3)cc2=O)cc1` [Example 6, 4-[(4-Fluorobenzyl)oxy]-1-[4-(3-hydroxy-2,2-dimethylpropoxy)phenyl]pyridin-2(1H)-one]: the IC50 amounted to 63 nM.

For `CC(C)(O)c1ccc2cc(-n3ccc(OCc4ccc(F)cc4)cc3=O)ccc2n1` [Example 7, 4-(4-Fluorobenzyloxy)-1-[2-(2-hydroxypropan-2-yl)quinolin-6-yl]pyridin-2-(1H)-one], the IC50 amounted to 38 nM.

On to `COc1cc(-n2ccc(OCc3ccc(F)cc3)cc2=O)ccc1OCCC(C)(C)O` [Example 8, 4-(4-Fluorobenzyloxy)-1-[4-(3-hydroxy-3-methylbutoxy)-3-methoxyphenyl]pyridin-2-(1H)-one], for which the IC50 came to 84 nM.

Take `CC(C)(O)CCOc1ccc(-n2ccc(OCc3ccc(F)cc3)cc2=O)cc1` [Example 9, 4-[(4-Fluorobenzyl)oxy]-1-[4-(3-hydroxy-3-methylbutoxy)phenyl]pyridin-2 (1H)-one]: the IC50 was 23 nM.

For the compound `CC(C)(O)COc1ccc(-n2ccc(OCc3ccc(F)cc3)cc2=O)cc1Cl` [Example 10, 1-[3-chloro-4-(2-hydroxy-2-methylpropoxy)phenyl]-4-[(4-fluorobenzyl)oxy]pyridin-2(1H)-one], the IC50 is 11 nM.

As to `CC(C)(O)COc1ccc(-n2ccc(OCc3ccc(F)cc3)cc2=O)cc1F` [Example 12, 4-[(4-fluorobenzyl)oxy]-1-[3-fluoro-4-(2-hydroxy-2-methylpropoxy)phenyl]pyridin-2(1H)-one], the IC50 came out at 97 nM.

Turning to `Cc1cc(-n2ccc(OCc3ccc(F)cc3)cc2=O)ccc1OCC(=O)OC(C)C` [Example 18, propan-2-yl (4-{4-[(4-fluorobenzyl)oxy]-2-oxopyridin-1(2H)-yl}-2-methylphenoxy)acetate], the IC50 turned out to be 23 nM.

Consider `COC(=O)COc1ccc(-n2ccc(OCc3ccc(F)cc3)cc2=O)cc1C` [Example 19, methyl (4-{4-[(4-fluorobenzyl)oxy]-2-oxopyridin-1(2H)-yl}-2-methylphenoxy)acetate], for which the IC50 amounted to 31 nM.

Take `COC(=O)COc1ccc(-n2ccc(OCc3ccc(F)cc3)cc2=O)cc1OC` [Example 20, methyl (4-{4-[(4-fluorobenzyl)oxy]-2-oxopyridin-1(2H)-yl}-2-methoxyphenoxy)acetate]: the IC50 worked out at 61 nM.

For the compound `COc1cc(-n2ccc(OCc3ccc(Cl)cn3)cc2=O)ccc1OC[C@H](O)C1CC1` [Example 21, 4-[(5-chloropyridin-2-yl)methoxy]-1-{4-[(2R)-2-cyclopropyl-2-hydroxyethoxy]-3-methoxyphenyl}pyridin-2(1H)-one], the IC50 was found to be 33 nM.

Turning to `O=c1cc(OCc2ccc(Cl)cn2)ccn1-c1ccc(OC[C@H](O)C2CC2)cc1` [Example 22], the IC50 turned out to be 101 nM.

With `COc1cc(-n2ccc(OCc3ccc(Cl)cn3)cc2=O)ccc1OC[C@@H](O)C1CC1` [Example 24, 4-[(5-chloropyridin-2-yl)methoxy]-1-{4-[(2S)-2-cyclopropyl-2-hydroxyethoxy]-3-methoxyphenyl}pyridin-2(1H)-one], the IC50 amounted to 36 nM.

For the compound `O=c1cc(OCc2ccc(Cl)cn2)ccn1-c1ccc(OC[C@@H](O)C2CC2)cc1` [Example 26, 4-[(5-chloropyridin-2-yl)methoxy]-1-{4-[(2S)-2-cyclopropyl-2-hydroxyethoxy]phenyl}pyridin-2(1H)-one], the IC50 worked out at 91 nM.

(Values after patent publication US20120316200A1, “PYRIDONE DERIVATIVES” (Merck Sharp & Dohme Corp., priority 2010, published 2012).)
